{"source": "the supplement of paper PMC10307832", "assay_in_all_cases": "relative viability (nuclei count vs DMSO), 5 days (fraction); higher = more cells survive", "key": {"[1]": {"compound": "C1CSC2=C(C(=O)N1)SC3=C2C=C(C=C3)O [kb NB 142-70] + C[C@]1(O)C[C@@H](c2nc(-c3ccc4ccc(-c5ccccc5)nc4c3)c3c(N)nccn32)C1 [Linsitinib] (partner 1 µM)", "in_short": "(§1)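 Relative viability equals treated-well nuclei counts divided by vehicle-well nuclei counts. Counts came from 4× images of lung cancer cell lines grown in 1536-well plates for 5 days after pin-tool dosing on the day after seeding. Dosing used one drug alone or a fixed anchor-drug dose plus five library-drug doses (not always all listed) in √10 steps, and values are medians of duplicate plates.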"}, "[2]": {"compound": "C1CSC2=C(C(=O)N1)SC3=C2C=C(C=C3)O [kb NB 142-70] + CC1(C)CCC(c2ccc(Cl)cc2)=C(CN2CCN(c3ccc(C(=O)NS(=O)(=O)c4ccc(N[C@H](CCN5CCOCC5)CSc5ccccc5)c(S(=O)(=O)C(F)(F)F)c4)cc3)CC2)C1 [Navitoclax] (partner 0.5 µM)", "in_short": "as §1"}, "[3]": {"compound": "NCC(=O)Nc1ccc(-n2nc(C(F)(F)F)cc2-c2ccc3c(ccc4ccccc43)c2)cc1 + CC1(C)CCC(c2ccc(Cl)cc2)=C(CN2CCN(c3ccc(C(=O)NS(=O)(=O)c4ccc(N[C@H](CCN5CCOCC5)CSc5ccccc5)c(S(=O)(=O)C(F)(F)F)c4)cc3)CC2)C1 [Navitoclax] (partner 0.5 µM)", "in_short": "as §1"}, "[4]": {"compound": "NCC(=O)Nc1ccc(-n2nc(C(F)(F)F)cc2-c2ccc3c(ccc4ccccc43)c2)cc1 + Cc1nc(NC(=O)N2CCC[C@H]2C(N)=O)sc1-c1ccnc(C(C)(C)C(F)(F)F)c1 [Alpelisib] (partner 2 µM)", "in_short": "as §1"}}}
{"cell line": "UMC-11", "values": [{"measurement": "relative viability", "setting": "[1]; first compound 0.1 µM", "result": 1.04}, {"measurement": "relative viability", "setting": "[1]; first compound 1 µM", "result": 0.984}, {"measurement": "relative viability", "setting": "[1]; first compound 3.162 µM", "result": 0.599}, {"measurement": "relative viability", "setting": "[2]; first compound 0.1 µM", "result": 0.293}, {"measurement": "relative viability", "setting": "[2]; first compound 1 µM", "result": 0.267}, {"measurement": "relative viability", "setting": "[2]; first compound 3.162 µM", "result": 0.184}, {"measurement": "relative viability", "setting": "[3]; first compound 0.02 µM", "result": 0.303}, {"measurement": "relative viability", "setting": "[3]; first compound 0.06325 µM", "result": 0.349}, {"measurement": "relative viability", "setting": "[3]; first compound 0.2 µM", "result": 0.35}, {"measurement": "relative viability", "setting": "[3]; first compound 0.6325 µM", "result": 0.304}, {"measurement": "relative viability", "setting": "[3]; first compound 2 µM", "result": 0.328}, {"measurement": "relative viability", "setting": "[4]; first compound 0.02 µM", "result": 0.985}, {"measurement": "relative viability", "setting": "[4]; first compound 0.06325 µM", "result": 0.968}, {"measurement": "relative viability", "setting": "[4]; first compound 0.2 µM", "result": 1.03}, {"measurement": "relative viability", "setting": "[4]; first compound 0.6325 µM", "result": 0.958}, {"measurement": "relative viability", "setting": "[4]; first compound 2 µM", "result": 1.1}]}
